Assay results published in patent JP2011135835A, “ダンマラン系トリテルペン類含有組成物及び呈味改善方法” (Lion Corp, priority 2009, dated 2011).

Assay: physchem
Format: physicochemical
Conditions: for residual rate: after standing 3 weeks at 40°C, 75% relative humidity, HPLC

Row | Compound | remaining at 504 h [%] | residual rate
1 | CC1(C)CCC[C@](C)([C@H]2CC[C@]3(C)[C@@H]2[C@H](O)C[C@@H]2[C@@]4(C)CC[C@H](O)C(C)(C)[C@@H]4CC[C@]23C)O1 [PD, パナキサジオール] | 99.7 | 
2 | CC(C)=CCC[C@](C)(O)[C@H]1CC[C@]2(C)[C@@H]1[C@H](O)C[C@@H]1[C@@]3(C)CC[C@H](O)C(C)(C)[C@@H]3CC[C@]12C [PPD, プロトパナキサジオール] |  | 検出されなかった
3 | CC(C)=CCC[C@](C)(O)[C@H]1CC[C@]2(C)[C@@H]1[C@H](O)C[C@@H]1[C@@]3(C)CC[C@H](O)C(C)(C)[C@@H]3[C@@H](O)C[C@]12C [PPT, プロトパナキサトリオール] |  | 検出されなかった
4 | CC1(C)CCC[C@](C)([C@H]2CC[C@]3(C)[C@@H]2[C@H](O)C[C@@H]2[C@@]4(C)CC[C@H](O)C(C)(C)[C@@H]4[C@@H](O)C[C@]23C)O1 [PT, パナキサトリオール] | 99.8 | 
